Source: patent US20210040074A1 (The United States of America,as represented by the …, priority 2018, published 2021)
“And” between values parts separate entries of the source, which are not always exact repeats. Identical values can stand only once.

Tests used:
β2AR = β2AR (Homo sapiens, UniProt P07550); test: β2AR β-arrestin BRET assay; settings: 50 μM compound
Method: (§2) Bioluminescence Resonance Energy Transfer (BRET) Assays. Experiments were performed in HEK239 cells transiently transfected with D1R-RLuc8 and β-arrestin-mVenus (β-arrestin BRET) or Gαs-mVenus+β1+γ2 (Gs BRET) using the polyethylenimine (PEI) transfection method. […] Appropriate amounts of DNA were combined with 3 μg/μL PEI per μg of DNA in nonsupplemented DMEM and incubated with the cells overnight. Experiments were performed 48 hours post-transfection. On experiment day, cells were collected and resuspended in Dulbecco's Phosphate-Buffered Saline (DPBS) with Ca2+ and Mg2++0.2 mM sodium metabisulfite+5.5 mM glucose.

human D1R [1] = molecular target: T1, human D1R (Homo sapiens, UniProt P21728); test: D1 cAMP accumulation assay (D1R-HEK293 cells, DiscoverX HitHunter); settings: for increase in dopamine potency for cAMP accumulation: 50 μM compound vs DA alone; for agonist activity for cAMP accumulation: compound alone; for D1 cAMP: DA + 50 μM PAM, Fold Chg EC50: fold change of dopamine EC50, 50 μM compound
Method: cAMP Accumulation Assay. Assays were performed on D1R-HEK293 (Codex Biosolutions, Gaithersburg, Md.) cells stably expressing the human D1R. HEK293 cell lines were maintained in Dulbecco's modified Eagles medium, supplemented with 10% fetal bovine serum, 100 U/ml penicillin, 100 μg/ml streptomycin, 1 mM sodium pyruvate, and 250 μg/ml G418 and incubated at 37° C., 5% CO2, and 90% humidity. […] After 18-24 h incubation at 37° C., 5% CO2, and 90% humidity, the media was removed and replaced with 5 μL/well PBS. […] Briefly, antibody and working solution was added to each well according to the manufacturer's protocol, and incubated in the dark at room temperature for 60 min. Following incubation, enzyme acceptor reagent was added to the plates and luminescence (RLU) was measured (FDSS μCell, Hamamatsu Photonics K. K., Bridgewater, N.J.) following a 3 h incubation in the dark at room temperature.

D3R = D3R (Homo sapiens, UniProt P35462); test: D3R β-arrestin BRET assay; settings: 50 μM compound
Method: as §2

[2] = system: non D1R containing control cells; test: Forskolin stimulated cAMP accumulation in non D1R containing control cells; format: cell-based
D2R = D2R (Homo sapiens, UniProt P14416); test: D2R β-arrestin BRET assay; settings: 50 μM compound
Method: as §2

D4R [3] = molecular target: T2, D4R (Homo sapiens, UniProt P21917); test: D4 β-arrestin recruitment assay (DiscoverX PathHunter, CHO-K1 cells); format: cell-based; parameters: inferred from the same PathHunter system described for D1R and D5R; host or cells: CHO-K1; settings: for D4 Beta-Arrestin: DA + 50 μM PAM, Fold Change EC50: fold change of dopamine EC50, 50 μM compound
T2 sequence (P21917 1-419): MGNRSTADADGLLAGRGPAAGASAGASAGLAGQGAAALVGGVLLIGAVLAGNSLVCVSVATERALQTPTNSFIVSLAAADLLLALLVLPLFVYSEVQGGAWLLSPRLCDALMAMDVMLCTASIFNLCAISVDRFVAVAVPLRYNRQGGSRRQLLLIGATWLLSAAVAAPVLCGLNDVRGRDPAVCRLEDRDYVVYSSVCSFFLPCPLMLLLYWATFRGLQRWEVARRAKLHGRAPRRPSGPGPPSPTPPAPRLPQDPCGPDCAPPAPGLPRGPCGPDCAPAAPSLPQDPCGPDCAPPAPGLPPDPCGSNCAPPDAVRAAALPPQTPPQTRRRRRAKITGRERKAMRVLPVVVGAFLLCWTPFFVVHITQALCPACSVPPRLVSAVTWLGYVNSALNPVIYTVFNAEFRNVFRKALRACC
Method: (§1) β-arrestin Recruitment Assay. Agonist-mediated recruitment of β-arrestin-2 to all five DARs was determined using the DiscoveRx PathHunter complementation assay (DiscoverX Inc, Fremont, Calif.), as previously described (Free, et. al., 2014; Conroy, et. al., 2015). […] Following 18-24 h of incubation, the cells were treated with the indicated concentrations of compound in PBS buffer containing 0.2 mM sodium metabisulfite, and incubated at 37° C. for 90 min. DiscoverX reagent was added to cells according to the manufacturer's protocol, followed by a 60 min incubation in the dark at room temperature. Luminescence was measured on a Hamamatsu FDSS μ-Cell reader (Hamamatsu, Bridgewater, N.J.) and data were collected using the FDSS software.

D5 [4] = molecular target: T3, D5 (Homo sapiens, UniProt P21918); test: D5 cAMP assay; settings: fold change of dopamine EC50, 50 μM compound
D4R [5] = molecular target: T2, D4R; test: D4R β-arrestin BRET assay; settings: 50 μM compound
Method: as §2

human D1R [6] = molecular target: T1, human D1R; test: [3H]-SCH23390 radioligand competition binding (HEK293 D1R membranes), incl. allosteric ternary complex model; settings: for log α / α (binding cooperativity between PAM and dopamine): allosteric ternary complex model; for effect on [3H]-SCH23390 binding: compound alone, up to 50 μM; for leftward shift of dopamine competition curve (increase in dopamine affinity): dopamine competition with [3H]-SCH23390, increasing concentrations of compound; for decrease of [3H]-SCH23390 binding: highest concentration tested, 50 μM
D5 [7] = molecular target: T3, D5; test: D5R β-arrestin recruitment assay (DiscoverX PathHunter, CHO cells); format: cell-based; parameters: host or cells: CHO-K1; settings: for D5 Beta-Arrestin: DA + 50 μM PAM, Fold Change EC50: fold change of dopamine EC50, 50 μM compound; for agonist response of PAM alone at D5R: in the absence of DA
Method: as §1, with “Assay.” for “Assay. Agonist-mediated recruitment of β-arrestin-2 to all five DARs was determined using the DiscoveRx PathHunter complementation assay (DiscoverX Inc, Fremont, Calif.), as previously described (Free, et. al., 2014; Conroy, et. al., 2015).”
Each PAM was also examined in the absence of DA as an agonist, as indicated.

human D1R [8] = molecular target: T1, human D1R; test: D1R β-arrestin recruitment assay (DiscoverX PathHunter, CHO-K1 cells); parameters: Emax: dose or concentration left out as unconfirmed; settings: for increase in dopamine potency (EC50) for β-arrestin recruitment to D1R: 50 μM compound vs DA alone; for Emax: CHO-K1, read-out: increase in dopamine efficacy (Emax) for β-arrestin recruitment to D1R; for agonist activity of PAM alone, β-arrestin recruitment: concentration response with the PAM, no dopamine; for effect on potency of D1R partial agonists: fenoldopam, apomorphine, SKF38393, SKF77434; for D1 Beta-Arrestin: DA + 50 μM PAM, Fold Chg EC50: fold change of dopamine EC50, 50 μM compound; for log β (modulatory effect on dopamine efficacy) / β (modulatory effect on dopamine efficacy): operational model of allosterism; for increase in SKF77434-stimulated response: partial agonist SKF77434 + PAM, text says cAMP accumulation, FIG. 5D legend β-arrestin; for increase in efficacy of SKF38393 / increase in efficacy of apomorphine / increase in efficacy of fenoldopam: β-arrestin recruitment; for increase in efficacy of SKF38393: G-protein biased partial agonist SKF38393 + PAM; for increase in efficacy of apomorphine: partial agonist apomorphine + PAM; for increase in efficacy of fenoldopam: partial agonist fenoldopam + PAM

T3 sequence (P21918 whole entry): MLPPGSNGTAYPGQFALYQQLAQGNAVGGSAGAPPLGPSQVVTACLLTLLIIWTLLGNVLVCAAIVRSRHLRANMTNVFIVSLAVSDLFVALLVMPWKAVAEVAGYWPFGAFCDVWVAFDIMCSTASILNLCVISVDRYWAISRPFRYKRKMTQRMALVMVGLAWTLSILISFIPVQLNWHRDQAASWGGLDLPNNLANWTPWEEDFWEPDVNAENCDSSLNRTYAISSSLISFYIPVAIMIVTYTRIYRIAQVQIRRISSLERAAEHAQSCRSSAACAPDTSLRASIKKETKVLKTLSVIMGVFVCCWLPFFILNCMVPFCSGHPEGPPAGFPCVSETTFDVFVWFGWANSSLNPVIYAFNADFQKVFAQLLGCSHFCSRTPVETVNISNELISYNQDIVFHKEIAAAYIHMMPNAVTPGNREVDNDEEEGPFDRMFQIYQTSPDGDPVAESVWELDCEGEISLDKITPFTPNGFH
T1 sequence (P21728 whole entry): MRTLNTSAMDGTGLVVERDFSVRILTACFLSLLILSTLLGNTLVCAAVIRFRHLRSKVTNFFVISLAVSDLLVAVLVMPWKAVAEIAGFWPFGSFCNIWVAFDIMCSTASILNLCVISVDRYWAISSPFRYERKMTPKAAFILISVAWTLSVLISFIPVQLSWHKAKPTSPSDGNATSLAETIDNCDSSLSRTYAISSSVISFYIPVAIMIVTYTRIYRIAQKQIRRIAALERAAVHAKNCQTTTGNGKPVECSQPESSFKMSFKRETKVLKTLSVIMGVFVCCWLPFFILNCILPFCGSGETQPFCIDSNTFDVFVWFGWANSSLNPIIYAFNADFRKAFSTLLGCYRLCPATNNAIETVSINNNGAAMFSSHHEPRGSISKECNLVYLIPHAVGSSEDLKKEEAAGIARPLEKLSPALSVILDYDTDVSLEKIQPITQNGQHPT
Chain of D3R (P35462 whole entry): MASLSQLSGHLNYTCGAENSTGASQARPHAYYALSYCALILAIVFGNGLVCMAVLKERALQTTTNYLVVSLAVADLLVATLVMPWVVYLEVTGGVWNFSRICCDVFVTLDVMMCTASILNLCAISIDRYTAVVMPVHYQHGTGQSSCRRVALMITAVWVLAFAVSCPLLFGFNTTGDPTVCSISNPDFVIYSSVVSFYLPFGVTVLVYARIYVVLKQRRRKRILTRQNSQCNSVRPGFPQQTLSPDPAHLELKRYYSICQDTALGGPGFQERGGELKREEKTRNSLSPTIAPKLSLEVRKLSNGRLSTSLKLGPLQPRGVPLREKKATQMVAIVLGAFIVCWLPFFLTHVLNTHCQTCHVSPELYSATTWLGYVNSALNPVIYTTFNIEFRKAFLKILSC
Chain of D2R (P14416 whole entry): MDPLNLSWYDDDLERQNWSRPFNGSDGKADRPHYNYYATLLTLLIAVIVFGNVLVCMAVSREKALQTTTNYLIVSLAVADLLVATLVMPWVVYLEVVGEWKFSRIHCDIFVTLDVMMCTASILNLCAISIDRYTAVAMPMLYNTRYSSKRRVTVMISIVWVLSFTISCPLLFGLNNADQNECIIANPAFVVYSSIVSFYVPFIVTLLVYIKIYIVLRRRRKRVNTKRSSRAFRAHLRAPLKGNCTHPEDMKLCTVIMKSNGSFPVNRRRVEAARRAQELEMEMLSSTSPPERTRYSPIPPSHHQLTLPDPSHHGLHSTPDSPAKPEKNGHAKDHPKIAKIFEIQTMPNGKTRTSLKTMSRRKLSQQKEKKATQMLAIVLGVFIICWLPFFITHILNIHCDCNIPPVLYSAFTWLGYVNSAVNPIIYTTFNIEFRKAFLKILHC
Chain of β2AR (P07550 whole entry): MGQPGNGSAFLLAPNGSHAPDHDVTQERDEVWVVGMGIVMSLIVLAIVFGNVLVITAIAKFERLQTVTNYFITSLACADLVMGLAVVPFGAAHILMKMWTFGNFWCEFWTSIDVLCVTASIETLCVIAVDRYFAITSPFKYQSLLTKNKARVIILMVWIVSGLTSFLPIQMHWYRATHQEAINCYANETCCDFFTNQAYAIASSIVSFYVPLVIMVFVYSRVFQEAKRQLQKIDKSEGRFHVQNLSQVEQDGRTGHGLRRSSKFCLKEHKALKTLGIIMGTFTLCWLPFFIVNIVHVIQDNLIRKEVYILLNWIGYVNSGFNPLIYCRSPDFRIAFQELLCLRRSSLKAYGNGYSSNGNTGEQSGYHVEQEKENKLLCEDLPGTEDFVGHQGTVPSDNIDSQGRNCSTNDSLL

increase in dopamine potency for cAMP accumulation (human D1R [1])	D1 cAMP: DA + 50 μM PAM, Fold Chg EC50 (human D1R [1])	D4 Beta-Arrestin: DA + 50 μM PAM, Fold Change EC50 (D4R [3])	D5 cAMP: DA + 50 μM PAM, Fold Change EC50 (D5 [4])	Kb (human D1R [6])	log α (human D1R [6])	α (binding cooperativity between PAM and dopamine) (human D1R [6])	effect on [3H]-SCH23390 binding (human D1R [6])	leftward shift of dopamine competition curve (increase in dopamine affinity) (human D1R [6])	decrease of [3H]-SCH23390 binding (human D1R [6])	D5 Beta-Arrestin: DA + 50 μM PAM, Fold Change EC50 (D5 [7])	agonist response of PAM alone at D5R (D5 [7])	Kb (human D1R [8])	increase in dopamine potency (EC50) for β-arrestin recruitment to D1R (human D1R [8])	SMILES	potentiation of epinephrine response at β2AR (β2AR)	agonist activity for cAMP accumulation (human D1R [1])	potentiation of dopamine response at D3R (D3R)	effect on forskolin stimulated cAMP accumulation [2]	potentiation of dopamine response at D2R (D2R)	potentiation of dopamine response at D4R (D4R [5])	other results
														CC(C)(C)C1CCc2c(sc(NC(=O)c3cccnc3)c2C(N)=O)C1 (centres unmarked) [Example 2.3, N-(6-(Tert-butyl)-3-carbamoyl-4,5,6,7-tetrahydrobenzo[b]thiophen-2-yl)nicotinamide]							melting point: 195 to 209 °C
5 fold and 4 fold	2.93	1.72	1.63	5370 nM	0.82±0.11	6.61	complete inhibition	~7 fold	~66%	1.25	Neither PAM produced an agonist response	5400 nM	8 fold	CC(C)(C)C1CCc2c(sc(NC(=O)c3ccncc3)c2C(N)=O)C1 (centres unmarked) [Compound 28]	Neither PAM produced any measurable potentiation	Neither compound 1 (FIGS. 3A and 3B) nor compound 28 (FIGS. 3C and 3D) demonstrated any agonist activity	Neither PAM produced any measurable potentiation	no increase	Neither PAM produced any measurable potentiation	Neither PAM produced any measurable potentiation	Emax (human D1R [8]): 34%; agonist activity of PAM alone, β-arrestin recruitment (human D1R [8]): Neither PAM displayed any measurable agonist activity; effect on potency of D1R partial agonists (human D1R [8]): Neither PAM altered the potency; D1 Beta-Arrestin: DA + 50 μM PAM, Fold Chg EC50 (human D1R [8]): 8.29; log β (modulatory effect on dopamine efficacy) (human D1R [8]): 0.32±0.1; β (modulatory effect on dopamine efficacy) (human D1R [8]): 2.09; increase in SKF77434-stimulated response (human D1R [8]): 96%; increase in efficacy of SKF38393 (human D1R [8]): 151%; increase in efficacy of apomorphine (human D1R [8]): 134%; increase in efficacy of fenoldopam (human D1R [8]): 83%
3 fold	1.83	1.06	2.14	540 nM	0.49±0.07	3.09	no displacement	~3 fold	~17%	2.56	Neither PAM produced an agonist response	460 nM	7 fold and 5 fold and 4.6 fold	Cn1c2ccccc2c(=O)c2c(=O)n(-c3ccccc3)c(C3CCCCC3)nc21 [Compound 1, 2-Cyclohexyl-10-methyl-3-phenylpyrimido[4,5-b]quinoline-4,5(3H,10H)-dione]	Neither PAM produced any measurable potentiation	Neither compound 1 (FIGS. 3A and 3B) nor compound 28 (FIGS. 3C and 3D) demonstrated any agonist activity	Neither PAM produced any measurable potentiation	does not significantly increase	Neither PAM produced any measurable potentiation	Neither PAM produced any measurable potentiation	Dopamine D4-β-arrestin Assay: DA + 50 μM PAM, Fold Change EC50 (D4R [3]; Table 7, 50 μM compound): 1.06; fold change of dopamine EC50 for β-arrestin recruitment to D5R (D5 [7]; 50 μM compound): 2.5 fold; Dopamine D5-β-arrestin Assay: DA + 50 μM PAM, Fold Change EC50 (D5 [7]; Table 6, 50 μM compound): 2.56; Emax (human D1R [8]): 20%; Dopamine D1-β-arrestin Assay: DA + 50 μM PAM, Fold Change EC50 (human D1R [8]; Table 5, 50 μM compound): 4.64; agonist activity of PAM alone, β-arrestin recruitment (human D1R [8]): Neither PAM displayed any measurable agonist activity; effect on potency of D1R partial agonists (human D1R [8]): Neither PAM altered the potency; D1 Beta-Arrestin: DA + 50 μM PAM, Fold Chg EC50 (human D1R [8]): 4.64; log β (modulatory effect on dopamine efficacy) (human D1R [8]): 0.41±0.06; β (modulatory effect on dopamine efficacy) (human D1R [8]): 2.57; increase in SKF77434-stimulated response (human D1R [8]): 130%; increase in efficacy of SKF38393 (human D1R [8]): 111%; increase in efficacy of apomorphine (human D1R [8]): 95%; increase in efficacy of fenoldopam (human D1R [8]): 48%
